Measurements from paper PMC9319939, “Siccanin Is a Dual-Target Inhibitor of Plasmodium falciparum Mitochondrial Complex II and Complex III” (Pharmaceuticals, 2022).

Tests used:
[1] = system: T. mentagrophytes complex II; design: method as in PMID 4250609; details: ref [31]; read-out: IC50, T. mentagrophytes enzyme; cited from earlier work
[2] = system: malate:quinone oxidoreductase (MQO); test: MQO activity, crude mitochondrial fraction, DCIP reduction; assay type: biochemical, Plasmodium falciparum
Description: (§1) A synchronized parasite culture was grown for 64 h and a crude mitochondrial fraction was prepared from trophozoite-stage cells (as confirmed by Giemsa staining). Infected red blood cells were collected by centrifugation at 800× g for 5 min at 4 °C and incubated for 5 min at room temperature with 40 mL of 0.075% (w/v) saponin in AIM buffer (120 mM KCl, 20 mM NaCl, 10 mM PIPES (1,4-piperazinediethanesulfonic acid) buffer [pH 6.7], 1 mM MgCl2, 5 mM glucose). Released parasites were collected by centrifugation at 2780× g for 7 min at 4 °C and washed three times with AIM buffer. […]
(§2) Complex II, DHODH, MQO, NDH2, G3PDH, and dihydroorotate-cytochrome c (DHO-cyt c) reductase activities were measured, as described previously, using a V-660 spectrophotometer (JASCO; Tokyo, Japan). Briefly, complex II activity was measured at 25 °C in a 1 mL reaction mixture containing 45 μM 2,6-dichlorophenolidophenol (DCIP), 100 μM ubiquinone-2 (UQ2), and 2 mM KCN in 50 mM potassium phosphate buffer, pH 8.0. DHODH, MQO, and G3PDH activities were measured at 25 °C in 1 mL of the reaction mixture containing 45 μM DCIP, 100 μM UQ2, and 2 mM KCN in 30 mM Tris-HCl buffer, pH 8.0. […] NDH2 activity was measured at 25 °C in 1 mL of the reaction mixture containing 100 µM UQ1 and 2 mM KCN in 50 mM potassium phosphate buffer, pH 8.0. […]

[3] = system: Mammal complex II; details: ref Mogi et al. [34]; read-out: Siccanin IC50, Mammal, Complex II; cited from earlier work
[4] = system: glycerol-3-phosphate dehydrogenase (G3PDH); test: G3PDH activity, crude mitochondrial fraction, DCIP reduction; assay type: biochemical, Plasmodium falciparum
Description: as §1, §2

[5] = system: P. falciparum Dd2; test: Growth inhibition of Dd2 parent; assay type: cell-based; details: Plasmodium falciparum, DD2, read-out: Growth inhibition EC50, Dd2
Description: (§3) P. falciparum 3D7-yDHODH was prepared and maintained as described previously. P. falciparum Dd2, and Dd2-derived mutant strains were kindly provided by David A. Fidock, and maintained at Nagasaki University essentially as described in reference, except without supplementation with WR99210.
(§4) Synchronized ring-form parasites (0.3% parasitemia) were prepared in complete medium containing different concentration of various compounds (at a fixed final DMSO concentration of 0.1% (v/v)) and distributed to 96-well plates at 100 μL/well. After 72 h of incubation, parasite growth was monitored by the previously described lactate dehydrogenase (PfLDH)-based assay method; plates were read using a SpectraMax® Paradigm spectrophotometer (Molecular Devices, Inc.; San Jose, CA, USA). EC50 values were calculated using Prism® ver.6.01 (GraphPad; San Diego, CA, USA). Values are presented as the means of three independent experiments.

[6] = biological target: T1, dihydroorotate dehydrogenase (DHODH) (Plasmodium falciparum, UniProt Q08210); test: DHODH activity, crude mitochondrial fraction, DCIP reduction; assay type: biochemical
T1 construct: used as crude mitochondrial fraction for all enzymatic assays; endogenous in cells; host or cells: P. falciparum 3D7 trophozoite-stage parasites, crude mitochondrial fraction
T1 sequence (Q08210 24-569): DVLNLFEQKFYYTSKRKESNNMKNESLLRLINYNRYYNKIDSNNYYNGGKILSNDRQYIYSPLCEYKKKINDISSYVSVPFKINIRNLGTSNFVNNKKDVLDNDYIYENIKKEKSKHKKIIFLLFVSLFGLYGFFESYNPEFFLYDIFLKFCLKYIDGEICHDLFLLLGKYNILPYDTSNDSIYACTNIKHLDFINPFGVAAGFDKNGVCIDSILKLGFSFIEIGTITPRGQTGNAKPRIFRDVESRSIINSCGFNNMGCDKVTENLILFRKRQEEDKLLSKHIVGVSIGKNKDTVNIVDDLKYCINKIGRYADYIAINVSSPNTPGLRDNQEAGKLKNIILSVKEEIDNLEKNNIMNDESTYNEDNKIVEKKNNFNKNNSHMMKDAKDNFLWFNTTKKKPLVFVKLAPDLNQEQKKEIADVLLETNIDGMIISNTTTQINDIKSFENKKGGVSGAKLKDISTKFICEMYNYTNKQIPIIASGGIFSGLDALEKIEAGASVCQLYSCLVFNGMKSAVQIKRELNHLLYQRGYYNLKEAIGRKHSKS
Description: as §1, with “buffer. P. falciparum was suspended in MSE buffer [225 mM mannitol, 75 mM sucrose, 0.1 mM ethylenediaminetetraacetic acid (EDTA), 3 mM Tris-HCl buffer, pH 7.4] containing 1 mM phenylmethylsulphonyl fluoride, and disrupted by nitrogen cavitation at 1200 psi using a 4639 Cell Disruption Bomb (Parr Instrument Company; Moline, IL, USA). The unbroken cells and cell debris were removed by centrifugation at 800× g for 5 min at 4 °C. The supernatant was centrifuged at 5000× g for 20 min at 4 °C.” for “buffer.”
Complex II, DHODH, MQO, NDH2, G3PDH, and dihydroorotate-cytochrome c (DHO-cyt c) reductase activities were measured, as described previously, using a V-660 spectrophotometer (JASCO; Tokyo, Japan). Briefly, complex II activity was measured at 25 °C in a 1 mL reaction mixture containing 45 μM 2,6-dichlorophenolidophenol (DCIP), 100 μM ubiquinone-2 (UQ2), and 2 mM KCN in 50 mM potassium phosphate buffer, pH 8.0. DHODH, MQO, and G3PDH activities were measured at 25 °C in 1 mL of the reaction mixture containing 45 μM DCIP, 100 μM UQ2, and 2 mM KCN in 30 mM Tris-HCl buffer, pH 8.0. Complex II, DHODH, MQO, and G3PDH activities were measured by monitoring the change in absorbance at 600 nm (reflecting DCIP reduction) after the reaction was initiated by adding 10 mM succinate, 500 μM dihydroorotate, 10 mM malate, or 500 μM glycerol-3-phosphate, respectively. NDH2 activity was measured at 25 °C in 1 mL of the reaction mixture containing 100 µM UQ1 and 2 mM KCN in 50 mM potassium phosphate buffer, pH 8.0. […]

[7] = system: P. falciparum 3D7-yDHODH; test: Growth inhibition of yeast DHODH-expressing strain; assay type: cell-based; details: Plasmodium falciparum, 3D7, read-out: Growth inhibition EC50, 3D7-yDHODH
Description: as §3, §4

[8] = system: Dd2_DDD (eEF2-Y186N mutation); test: Growth inhibition of Dd2_DDD (DDD107498-resistant); assay type: cell-based; details: Plasmodium falciparum, read-out: Growth inhibition EC50, DDD
Description: as §3, §4

For `Cc1cc(O)c2c(c1)O[C@@]1(C)CC[C@H]3C(C)(C)CCC[C@]34CO[C@@H]2[C@H]41` [Siccanin], the IC50 [1] is given as about 0.09 µM, the “Effect on MQO activity” value ([2]; 10 µM) is given as “did not inhibit” and the “Relative residual activity of MQO” value ([2]; siccanin 10 μM) is given as 109.2 ± 2.0%. The IC50 [3] was 861 µM, the “Effect on G3PDH activity” value ([4]; 10 µM) was “weakly inhibited” and the “Relative residual activity of G3PDH” value ([4]; siccanin 10 μM) was 72.5 ± 4.0%. The EC50 [5] was 12.4 µM, the “Effect on DHODH activity” value ([6]; 10 µM) was “did not inhibit” and the “Effect on DHODH activity” value ([6]; 60 μM) was “does not inhibit”. The remaining activity at 10 µM ([6]; siccanin 10 μM, read-out: Relative residual activity of DHODH) was 101 ± 8.1%, the EC50 [7] was 10.3 µM and the EC50 [8] was 13.1 µM.
